Laboratory results as given in ChEMBL document CHEMBL3991601, “The target landscape of clinical kinase drugs” (Science, 2017).
pKd: −log10 of the molar value. Active and inactive are the calls of the source. Rule as the data show it, for most assays here: actives have a measured Kd and inactives only a lower limit.

How the values were obtained:
[1] = target: T1, Serine/threonine-protein kinase A-Raf (Homo sapiens, UniProt P10398)
T1 sequence (P10398 whole entry): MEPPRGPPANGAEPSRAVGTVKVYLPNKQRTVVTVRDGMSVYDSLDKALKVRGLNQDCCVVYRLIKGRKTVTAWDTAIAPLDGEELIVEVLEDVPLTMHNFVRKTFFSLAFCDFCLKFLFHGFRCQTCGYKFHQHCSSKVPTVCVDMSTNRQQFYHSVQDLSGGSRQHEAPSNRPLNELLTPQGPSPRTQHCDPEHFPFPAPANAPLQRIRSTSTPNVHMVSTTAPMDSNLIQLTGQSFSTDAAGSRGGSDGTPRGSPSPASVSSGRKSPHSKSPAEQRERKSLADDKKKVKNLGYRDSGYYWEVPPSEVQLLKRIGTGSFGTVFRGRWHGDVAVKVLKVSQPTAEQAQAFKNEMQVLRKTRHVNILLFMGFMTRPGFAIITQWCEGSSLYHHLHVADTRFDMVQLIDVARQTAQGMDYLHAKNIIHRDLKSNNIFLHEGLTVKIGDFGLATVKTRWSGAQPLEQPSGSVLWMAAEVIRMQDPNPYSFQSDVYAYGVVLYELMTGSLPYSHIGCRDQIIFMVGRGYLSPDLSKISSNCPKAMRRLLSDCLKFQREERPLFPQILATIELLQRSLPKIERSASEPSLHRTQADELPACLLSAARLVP

[2] = target: Mitogen-activated protein kinase kinase kinase 20 (Homo sapiens, UniProt Q9NYL2)
[3] = target: Serine/threonine-protein kinase SIK3 (Homo sapiens, UniProt Q9Y2K2)
[4] = target: T2, Serine/threonine-protein kinase TAO3 (Homo sapiens, UniProt Q9H2K8)
T2 sequence (Q9H2K8 whole entry): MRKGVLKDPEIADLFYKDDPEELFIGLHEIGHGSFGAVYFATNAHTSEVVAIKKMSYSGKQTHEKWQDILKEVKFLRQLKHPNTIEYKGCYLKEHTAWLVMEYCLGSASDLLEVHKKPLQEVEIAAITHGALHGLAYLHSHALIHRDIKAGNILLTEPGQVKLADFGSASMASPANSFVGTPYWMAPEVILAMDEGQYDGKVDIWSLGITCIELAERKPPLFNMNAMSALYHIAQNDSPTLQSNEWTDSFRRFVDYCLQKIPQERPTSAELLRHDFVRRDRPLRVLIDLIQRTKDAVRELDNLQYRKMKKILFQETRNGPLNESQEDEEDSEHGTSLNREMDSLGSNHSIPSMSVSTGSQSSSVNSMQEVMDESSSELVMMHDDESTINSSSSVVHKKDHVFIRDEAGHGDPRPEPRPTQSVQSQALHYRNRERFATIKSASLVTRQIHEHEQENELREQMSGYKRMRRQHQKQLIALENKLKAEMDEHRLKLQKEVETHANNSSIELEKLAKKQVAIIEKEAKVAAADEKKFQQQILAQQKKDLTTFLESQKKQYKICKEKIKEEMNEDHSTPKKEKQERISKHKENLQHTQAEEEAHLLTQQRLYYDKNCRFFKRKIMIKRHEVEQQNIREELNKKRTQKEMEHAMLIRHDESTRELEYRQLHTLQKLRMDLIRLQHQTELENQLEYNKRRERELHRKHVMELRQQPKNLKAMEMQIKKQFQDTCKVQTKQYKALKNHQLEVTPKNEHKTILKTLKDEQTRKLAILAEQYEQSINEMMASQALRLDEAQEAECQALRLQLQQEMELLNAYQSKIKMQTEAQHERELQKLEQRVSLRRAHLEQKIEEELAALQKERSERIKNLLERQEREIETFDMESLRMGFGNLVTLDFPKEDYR

[5] = target: T3, Mitogen-activated protein kinase 15 (Homo sapiens, UniProt Q8TD08)
T3 sequence (Q8TD08 whole entry): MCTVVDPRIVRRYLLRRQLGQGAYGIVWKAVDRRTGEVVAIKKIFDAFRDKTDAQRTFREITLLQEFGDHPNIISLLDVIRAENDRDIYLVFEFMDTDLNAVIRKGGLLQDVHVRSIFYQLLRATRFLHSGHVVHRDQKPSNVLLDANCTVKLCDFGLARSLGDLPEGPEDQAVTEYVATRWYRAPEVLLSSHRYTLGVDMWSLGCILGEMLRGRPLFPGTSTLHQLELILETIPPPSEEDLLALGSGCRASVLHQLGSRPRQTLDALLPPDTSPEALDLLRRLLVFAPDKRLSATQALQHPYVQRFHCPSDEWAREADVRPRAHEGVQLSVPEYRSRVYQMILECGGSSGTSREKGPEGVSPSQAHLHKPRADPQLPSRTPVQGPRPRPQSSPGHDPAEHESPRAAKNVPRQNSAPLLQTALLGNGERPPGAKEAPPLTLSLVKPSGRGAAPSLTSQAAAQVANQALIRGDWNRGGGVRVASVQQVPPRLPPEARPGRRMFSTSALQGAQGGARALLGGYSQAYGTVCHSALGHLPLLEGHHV

Activin receptor type-1 = target: T4, Activin receptor type-1 (Homo sapiens, UniProt Q04771)
T4 sequence (Q04771 whole entry): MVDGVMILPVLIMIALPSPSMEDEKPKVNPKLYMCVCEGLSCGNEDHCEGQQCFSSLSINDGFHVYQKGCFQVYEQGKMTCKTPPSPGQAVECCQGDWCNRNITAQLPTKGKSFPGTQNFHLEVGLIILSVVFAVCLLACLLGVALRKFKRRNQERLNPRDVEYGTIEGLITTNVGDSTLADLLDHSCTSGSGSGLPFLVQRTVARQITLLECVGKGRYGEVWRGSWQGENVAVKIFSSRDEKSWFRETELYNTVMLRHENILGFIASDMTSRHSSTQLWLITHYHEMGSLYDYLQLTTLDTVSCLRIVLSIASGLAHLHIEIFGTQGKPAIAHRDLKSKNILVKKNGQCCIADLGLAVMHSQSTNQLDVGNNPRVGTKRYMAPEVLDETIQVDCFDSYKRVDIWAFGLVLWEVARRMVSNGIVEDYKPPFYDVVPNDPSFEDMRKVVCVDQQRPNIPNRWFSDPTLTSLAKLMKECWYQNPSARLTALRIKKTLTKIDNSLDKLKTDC
Also: in the data inactive means no Kd found up to 30 µM.

Sequence of Serine/threonine-protein kinase SIK3 (Q9Y2K2 whole entry): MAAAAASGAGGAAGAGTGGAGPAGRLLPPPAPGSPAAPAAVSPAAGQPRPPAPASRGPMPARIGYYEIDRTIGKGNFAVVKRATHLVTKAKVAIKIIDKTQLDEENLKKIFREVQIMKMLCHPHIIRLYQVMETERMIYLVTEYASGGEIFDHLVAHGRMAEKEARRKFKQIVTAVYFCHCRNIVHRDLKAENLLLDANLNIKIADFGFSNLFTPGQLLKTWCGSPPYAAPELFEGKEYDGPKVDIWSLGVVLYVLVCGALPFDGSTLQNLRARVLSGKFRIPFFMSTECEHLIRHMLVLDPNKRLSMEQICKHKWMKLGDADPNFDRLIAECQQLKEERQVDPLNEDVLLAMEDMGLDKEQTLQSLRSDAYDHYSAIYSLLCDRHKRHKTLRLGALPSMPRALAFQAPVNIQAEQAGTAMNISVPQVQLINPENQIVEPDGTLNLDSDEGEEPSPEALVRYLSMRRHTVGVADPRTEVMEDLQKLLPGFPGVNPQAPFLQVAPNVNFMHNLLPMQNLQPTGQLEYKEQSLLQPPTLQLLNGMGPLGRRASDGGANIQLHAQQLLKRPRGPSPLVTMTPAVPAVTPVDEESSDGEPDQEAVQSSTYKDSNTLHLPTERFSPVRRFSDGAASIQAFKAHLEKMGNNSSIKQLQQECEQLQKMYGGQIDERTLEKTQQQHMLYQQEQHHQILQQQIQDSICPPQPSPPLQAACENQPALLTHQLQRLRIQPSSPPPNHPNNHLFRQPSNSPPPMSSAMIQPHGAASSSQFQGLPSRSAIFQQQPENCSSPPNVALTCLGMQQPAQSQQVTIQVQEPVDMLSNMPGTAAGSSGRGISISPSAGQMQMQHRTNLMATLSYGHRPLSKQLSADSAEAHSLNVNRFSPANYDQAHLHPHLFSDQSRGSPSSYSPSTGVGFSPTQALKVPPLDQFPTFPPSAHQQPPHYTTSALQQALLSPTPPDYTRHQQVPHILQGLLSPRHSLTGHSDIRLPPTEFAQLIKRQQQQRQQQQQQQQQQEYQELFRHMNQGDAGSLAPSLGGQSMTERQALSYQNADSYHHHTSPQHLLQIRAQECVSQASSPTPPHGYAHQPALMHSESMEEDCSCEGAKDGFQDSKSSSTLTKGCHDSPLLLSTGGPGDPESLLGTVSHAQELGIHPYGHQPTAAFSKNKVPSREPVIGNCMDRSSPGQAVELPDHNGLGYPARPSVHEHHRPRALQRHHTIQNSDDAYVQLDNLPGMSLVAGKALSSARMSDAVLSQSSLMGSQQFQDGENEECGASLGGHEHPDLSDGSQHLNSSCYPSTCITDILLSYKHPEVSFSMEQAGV
Sequence of Mitogen-activated protein kinase kinase kinase 20 (Q9NYL2 whole entry): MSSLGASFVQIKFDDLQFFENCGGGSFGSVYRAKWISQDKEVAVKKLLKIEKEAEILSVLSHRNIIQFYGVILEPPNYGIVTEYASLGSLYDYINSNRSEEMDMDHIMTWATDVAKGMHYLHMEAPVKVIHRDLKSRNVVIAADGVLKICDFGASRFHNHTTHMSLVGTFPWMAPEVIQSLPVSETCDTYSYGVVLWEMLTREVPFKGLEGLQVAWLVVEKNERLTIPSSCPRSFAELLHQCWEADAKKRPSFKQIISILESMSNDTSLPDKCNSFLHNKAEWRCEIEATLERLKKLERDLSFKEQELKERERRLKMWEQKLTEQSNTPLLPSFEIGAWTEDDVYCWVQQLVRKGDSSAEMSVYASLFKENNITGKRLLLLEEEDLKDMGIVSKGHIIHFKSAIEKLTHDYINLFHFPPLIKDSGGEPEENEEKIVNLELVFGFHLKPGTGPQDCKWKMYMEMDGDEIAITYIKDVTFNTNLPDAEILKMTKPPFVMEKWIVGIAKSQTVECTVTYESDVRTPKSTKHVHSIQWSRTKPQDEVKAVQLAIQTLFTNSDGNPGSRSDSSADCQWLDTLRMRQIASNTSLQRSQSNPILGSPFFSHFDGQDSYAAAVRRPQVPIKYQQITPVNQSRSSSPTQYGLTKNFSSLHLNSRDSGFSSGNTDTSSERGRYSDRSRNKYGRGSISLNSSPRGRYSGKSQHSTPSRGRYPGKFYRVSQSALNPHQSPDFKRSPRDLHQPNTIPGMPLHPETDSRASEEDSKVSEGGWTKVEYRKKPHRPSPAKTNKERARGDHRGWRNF

SMILES | Kd [1] | Kd [2] | Kd [3] | Kd [4] | Kd [5] | Kd (Activin receptor type-1) | pKd [3] | pKd [5]
O=C(NOC[C@H](O)CO)c1ccc(F)c(F)c1Nc1ccc(I)cc1F [MIRDAMETINIB] | > 30 µM (inactive) | > 30 µM (inactive) | > 30 µM (inactive) | > 30 µM (inactive) | > 30 µM (inactive) | > 30 µM (inactive) | – | –
CC(C)(O)CC(=O)NCCn1ccc2ncnc(Nc3ccc(Oc4cccc(C(F)(F)F)c4)c(Cl)c3)c21 [TAK-285] | > 30 µM (inactive) | > 30 µM (inactive) | > 30 µM (inactive) | > 30 µM (inactive) | > 30 µM (inactive) | > 30 µM (inactive) | – | –
Cc1cc(C(=O)Nc2cc(Oc3ccc4nc(NC(=O)C5CC5)cn4n3)ccc2C)n(C)n1 [TAK-593] | > 30 µM (inactive) | > 30 µM (inactive) | > 30 µM (inactive) | > 30 µM (inactive) | > 30 µM (inactive) | > 30 µM (inactive) | – | –
Cc1c(NC(=O)OC[C@@H]2COCCN2)cn2ncnc(Nc3ccc4c(cnn4Cc4cccc(F)c4)c3)c12 [AC-480] | > 30 µM (inactive) | > 30 µM (inactive) | > 30 µM (inactive) | > 30 µM (inactive) | > 30 µM (inactive) | > 30 µM (inactive) | – | –
C=CCN(/C=C1/C(=O)O[C@H](COC)[C@@]2(C)C1=C(O)C(=O)C1=C2[C@H](OC(C)=O)C[C@]2(C)C(=O)CC[C@@H]12)CC=C [SONOLISIB] | > 30 µM (inactive) | > 30 µM (inactive) | – | > 30 µM (inactive) | > 30 µM (inactive) | > 30 µM (inactive) | 7.96 | –
COc1cc(Nc2ncc(F)c(Nc3ccc4c(n3)N(COP(=O)(O)O)C(=O)C(C)(C)O4)n2)cc(OC)c1OC [FOSTAMATINIB] | > 30 µM (inactive) | > 30 µM (inactive) | > 30 µM (inactive) | > 30 µM (inactive) | > 30 µM (inactive) | > 30 µM (inactive) | – | –
C[C@@H]1COC(Nc2ccc3ncnc(Nc4ccc(OCc5nccs5)c(Cl)c4)c3c2)=N1 [VARLITINIB] | > 30 µM (inactive) | > 30 µM (inactive) | > 30 µM (inactive) | > 30 µM (inactive) | > 30 µM (inactive) | > 30 µM (inactive) | – | –
COCCN1CCN(Cc2ccc(-c3n[nH]c4c3C(=O)c3c(NC(=O)NN5CCOCC5)cccc3-4)cc2)CC1 [RGB-286638] | > 30 µM (inactive) | 1.11 µM (active) | > 30 µM (inactive) | > 30 µM (inactive) | > 30 µM (inactive) | > 30 µM (inactive) | – | –
CNC(=O)c1ccc(Nc2ncc(C(F)(F)F)c(NCc3nccnc3N(C)S(C)(=O)=O)n2)cc1 [DEFACTINIB] | > 30 µM (inactive) | > 30 µM (inactive) | > 30 µM (inactive) | 10.8 µM (active) | > 30 µM (inactive) | > 30 µM (inactive) | – | –
C=CC(=O)Nc1cccc(Nc2nc(Nc3ccc(N4CCN(C(C)=O)CC4)cc3OC)ncc2C(F)(F)F)c1 [ROCILETINIB] | > 30 µM (inactive) | > 30 µM (inactive) | > 30 µM (inactive) | > 30 µM (inactive) | > 30 µM (inactive) | > 30 µM (inactive) | – | –
Cc1ccc(C(=O)Nc2ccc(Oc3cc4cnn(C)c4cc3-c3cn[nH]c3)c(F)c2)c(=O)n1-c1ccc(F)cc1 [MERESTINIB] | > 30 µM (inactive) | > 30 µM (inactive) | > 30 µM (inactive) | > 30 µM (inactive) | > 30 µM (inactive) | > 30 µM (inactive) | – | –
O=C(O)c1ccc2c(c1)nc(Nc1cccc(Cl)c1)c1ccncc12 [SILMITASERTIB] | > 30 µM (inactive) | > 30 µM (inactive) | > 30 µM (inactive) | > 30 µM (inactive) | > 30 µM (inactive) | > 30 µM (inactive) | – | –
Cc1c(Cn2c(C)nc3c(C(=O)O)cc(N4CCOCC4)cc32)cccc1C(F)(F)F [GSK-2636771] | > 30 µM (inactive) | > 30 µM (inactive) | > 30 µM (inactive) | > 30 µM (inactive) | > 30 µM (inactive) | > 30 µM (inactive) | – | –
Cn1cc(-c2[nH]c3cc(NC(=O)[C@H](N)C4CCCCC4)cc4c3c2C=NNC4=O)cn1 | > 30 µM (inactive) | > 30 µM (inactive) | 0.386 µM (active) | > 30 µM (inactive) | > 30 µM (inactive) | > 30 µM (inactive) | – | –
NC(=O)c1ccc(N(C(N)=O)c2c(F)cccc2F)nc1-c1ccc(F)cc1F [VX-702] | > 30 µM (inactive) | > 30 µM (inactive) | > 30 µM (inactive) | > 30 µM (inactive) | > 30 µM (inactive) | > 30 µM (inactive) | – | –
COc1cc2ncnc(Nc3ccc(F)c(Cl)c3)c2cc1NC(=O)/C=C/CN1CCCCC1 [DACOMITINIB ANHYDROUS] | > 30 µM (inactive) | > 30 µM (inactive) | > 30 µM (inactive) | > 30 µM (inactive) | > 30 µM (inactive) | > 30 µM (inactive) | – | –
S=C(NCc1ccc2c(c1)OCO2)N1CCN(c2ncnc3c2oc2ccccc23)CC1 [AMUVATINIB] | > 30 µM (inactive) | > 30 µM (inactive) | > 30 µM (inactive) | > 30 µM (inactive) | > 30 µM (inactive) | > 30 µM (inactive) | – | –
COc1cc(F)c(F)c(Nc2ccc(I)cc2F)c1NS(=O)(=O)C1(C[C@H](O)CO)CC1 [REFAMETINIB] | > 30 µM (inactive) | > 30 µM (inactive) | > 30 µM (inactive) | > 30 µM (inactive) | > 30 µM (inactive) | > 30 µM (inactive) | – | –
O[C@H]1CC[C@H](Nc2ncc3nc(Nc4c(F)cc(F)cc4F)n([C@H]4CCOC4)c3n2)CC1 [TANZISERTIB] | > 30 µM (inactive) | > 30 µM (inactive) | 2.98 µM (active) | > 30 µM (inactive) | > 30 µM (inactive) | > 30 µM (inactive) | – | –
CCc1nc(C(N)=O)c(Nc2ccc(N3CCC(N4CCN(C)CC4)CC3)c(OC)c2)nc1NC1CCOCC1 [GILTERITINIB] | > 30 µM (inactive) | > 30 µM (inactive) | > 30 µM (inactive) | > 30 µM (inactive) | – | 0.039 µM (active) | – | 6.58
